pEC50, pIC50: −log10 of the molar value. Active and inactive are the calls of the source. The calls are words filed in the database; no cut-off is given here.
What was measured:
HeLa = assay: Cytostatic activity against human HeLa cells after 72 hrs by Coulter counting
[1] = Cytotoxicity against cat CRFK cells; assay type: cell-based, Felis catus
[2] = test system: Human immunodeficiency virus 2; assay: Antiviral activity against HIV2 ROD infected in human CEM cells assessed as inhibition of virus-induced syncytium formation by microscopy; conditions: Human immunodeficiency virus 2, ISOLATE ROD, CCRF-CEM
CCRF-CEM = assay: Cytostatic activity against human CEM cells after 72 hrs by Coulter counting
[3] = Inhibition of human PI4K3beta expressed in Escherichia coli BL21 after 60 mins by ADP-GloTM Kinase Assay
L1210 = assay: Cytostatic activity against mouse L1210 cells after 48 hrs by Coulter counting; conditions: L1210, 48 h
[4] = Cytotoxicity against human CEM cells infected with HIV2; assay type: cell-based, CCRF-CEM
Influenza A virus [5] = assay: Antiviral activity against influenza A virus H1N1 infected in MDCK cells assessed as inhibition of virus-induced cytopathic effect
Felid alphaherpesvirus 1 [6] = assay: Antiviral activity against Feline herpesvirus 1 infected in cat CRFK cells assessed as inhibition of virus induced cytopathicity; conditions: Felid alphaherpesvirus 1, CRFK
[7] = Cytotoxicity against human CEM cells infected with HIV1; assay type: cell-based, CCRF-CEM; conditions: CEM cells infected with HIV-1
Coxsackievirus B4 = assay: Antiviral activity against Coxsackievirus B4 infected in african green monkey Vero cells assessed as inhibition of virus-induced cytopathicity; assay type: functional, organism-based; conditions: for pEC50: Enterovirus B
[8] = Inhibition of human PI4K3alpha expressed in Escherichia coli BL21 after 60 mins by ADP-GloTM Kinase Assay
MDCK = assay: Cytotoxicity against MDCK cells; conditions: Canis lupus familiaris
[9] = test system: Human immunodeficiency virus 1; assay: Antiviral activity against HIV1 3B infected in human CEM cells assessed as inhibition of virus-induced syncytium formation by microscopy; conditions: Human immunodeficiency virus 1, 3B, CCRF-CEM
[10] = Cytotoxicity against african green monkey Vero cells; assay type: cell-based; conditions: chlorocebus sabaeus
Influenza A virus [11] = assay: Antiviral activity against influenza A virus H1N1 infected in MDCK cells assessed as inhibition of virus-induced cytopathic effect at 100 uM; assay type: functional, organism-based
[12] = test system: Human immunodeficiency virus 2; assay: Antiviral activity against HIV2 ROD infected in human CEM cells assessed as inhibition of virus-induced syncytium formation at 100 uM by microscopy; assay type: functional, organism-based; conditions: ISOLATE ROD, CCRF-CEM
[13] = test system: Human immunodeficiency virus 1; assay: Antiviral activity against HIV1 3B infected in human CEM cells assessed as inhibition of virus-induced syncytium formation at 100 uM by microscopy; assay type: functional, organism-based; conditions: CCRF-CEM
Felid alphaherpesvirus 1 [14] = assay: Antiviral activity against Feline herpesvirus 1 infected in cat CRFK cells assessed as inhibition of virus induced cytopathicity at 100 uM; assay type: functional, organism-based

Row | SMILES | pIC50 (HeLa) | pIC50 (CCRF-CEM) | pIC50 (L1210) | inhibition (Coxsackievirus B4) | other results
1 | Nc1ncnc2c1ncn2[C@@H]1C[C@@]2(CO)CC[C@@H]1C2 | 3.22 | < 3.41 | 3.39 | inactive | CC50 [1]: > 386 µM; pEC50 [2]: 3.64; pIC50 [3]: < 4.00; CC50 [4]: > 386 µM; pEC50 (Influenza A virus [5]): 3.75; pEC50 (Felid alphaherpesvirus 1 [6]): 4.24; CC50 [7]: > 386 µM; pIC50 [8]: < 4.00; EC50 (MDCK): > 386 µg/mL; pEC50 [9]: 4.00
2 | OC[C@]12CC[C@H](C1)[C@H](n1cnc3c(Cl)ncnc31)C2 (relative stereo) |  |  |  |  | pEC50 (Coxsackievirus B4): 4.60; CC50 [10]: > 359 µM
3 | Nc1nc(Cl)c2ncn([C@@H]3C[C@@]4(CO)CC[C@@H]3C4)c2n1 (relative stereo) | < 3.47 | 4.06 | 3.86 |  | pEC50 (Coxsackievirus B4): 4.51; CC50 [10]: > 359 µM
4 | COC(=O)[C@H](C)NP(=O)(OC[C@]12CC[C@H](C1)[C@H](n1cnc3c(NC4CC4)ncnc31)C2)Oc1ccccc1 (relative stereo) | 3.87 | 4.11 | 3.89 |  | 
5 | COC(=O)[C@H](C)NP(=O)(OC[C@]12CC[C@H](C1)[C@H](n1cnc3c(N)ncnc31)C2)Oc1ccccc1 (relative stereo) | < 3.70 | ≤ 3.70 | 3.80 |  | inhibition (Influenza A virus [11]): inactive; inhibition [12]: inactive; inhibition [13]: inactive; inhibition (Felid alphaherpesvirus 1 [14]): inactive
6 | Nc1nc(N)c2ncn([C@@H]3C[C@@]4(CO)CC[C@@H]3C4)c2n1 (relative stereo) | 3.72 | 3.76 | 3.75 |  | 
7 | Nc1nc(NC2CC2)c2ncn([C@@H]3C[C@@]4(CO)CC[C@@H]3C4)c2n1 (relative stereo) | 4.00 | 3.91 | 3.84 |  | 
8 | CN(C)c1ncnc2c1ncn2[C@@H]1C[C@@]2(CO)CC[C@@H]1C2 (relative stereo) |  |  |  | inactive | 
9 | OC[C@]12CC[C@H](C1)[C@H](n1cnc3c(=S)[nH]cnc31)C2 (relative stereo) |  |  |  | inactive | 
10 | OC[C@]12CC[C@H](C1)[C@H](n1cnc3c(NC4CC4)ncnc31)C2 (relative stereo) |  |  |  | inactive | 
11 | O=c1[nH]cc(F)c(=O)[nH]1 [FLUOROURACIL] | 5.59 |  |  |  | 
